Tests used:
[1] = biological target: Serine/threonine-protein kinase PAK 6 (Homo sapiens) (UniProt Q9NQU5)
[2] = biological target: Serine/threonine-protein kinase 10 (Homo sapiens) (UniProt O94804)
[3] = biological target: T1, Serine/threonine-protein kinase 17A (Homo sapiens) (UniProt Q9UEE5)
T1 sequence (whole entry): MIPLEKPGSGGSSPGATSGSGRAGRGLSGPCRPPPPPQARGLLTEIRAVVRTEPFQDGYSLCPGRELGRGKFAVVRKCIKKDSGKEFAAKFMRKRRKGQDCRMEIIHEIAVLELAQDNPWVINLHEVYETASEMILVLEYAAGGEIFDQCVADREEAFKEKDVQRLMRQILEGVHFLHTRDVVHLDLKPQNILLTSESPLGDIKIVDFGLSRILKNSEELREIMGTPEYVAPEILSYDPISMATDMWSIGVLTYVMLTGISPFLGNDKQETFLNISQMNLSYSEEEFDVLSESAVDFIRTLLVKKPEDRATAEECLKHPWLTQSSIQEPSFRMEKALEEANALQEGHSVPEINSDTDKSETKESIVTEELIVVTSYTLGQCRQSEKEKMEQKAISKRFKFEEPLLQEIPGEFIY

[4] = biological target: T2, Calcium/calmodulin-dependent protein kinase kinase 2 (Homo sapiens, UniProt Q96RR4); assay: Inhibition of CaM-KKbeta
[5] = biological target: Serine/threonine-protein kinase Nek6 (Homo sapiens) (UniProt Q9HC98)
Serine/threonine-protein kinase Nek6 (Homo sapiens), sequence (Q9HC98 whole entry): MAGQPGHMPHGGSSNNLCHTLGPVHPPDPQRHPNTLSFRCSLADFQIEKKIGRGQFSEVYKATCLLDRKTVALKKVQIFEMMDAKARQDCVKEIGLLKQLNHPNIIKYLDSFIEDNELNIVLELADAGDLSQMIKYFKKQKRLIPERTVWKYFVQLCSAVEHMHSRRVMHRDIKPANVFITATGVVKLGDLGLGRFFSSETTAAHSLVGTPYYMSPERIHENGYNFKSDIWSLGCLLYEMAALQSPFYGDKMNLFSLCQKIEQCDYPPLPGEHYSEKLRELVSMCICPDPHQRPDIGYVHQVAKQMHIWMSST

[6] = biological target: T3, Dual specificity mitogen-activated protein kinase kinase 6 (Homo sapiens) (UniProt P52564)
T3 sequence (whole entry): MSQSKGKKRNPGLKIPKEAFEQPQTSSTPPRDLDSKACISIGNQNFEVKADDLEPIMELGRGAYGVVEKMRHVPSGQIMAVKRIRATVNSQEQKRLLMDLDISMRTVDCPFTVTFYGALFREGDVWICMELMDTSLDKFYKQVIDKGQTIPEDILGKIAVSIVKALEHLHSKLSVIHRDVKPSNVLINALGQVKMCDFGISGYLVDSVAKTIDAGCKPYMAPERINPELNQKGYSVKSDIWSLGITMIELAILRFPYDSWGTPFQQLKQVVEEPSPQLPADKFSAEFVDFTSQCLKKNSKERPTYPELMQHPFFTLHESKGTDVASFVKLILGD

[7] = biological target: Serine/threonine-protein kinase Chk2 (Homo sapiens, UniProt O96017)
Serine/threonine-protein kinase Chk2, sequence (O96017 whole entry): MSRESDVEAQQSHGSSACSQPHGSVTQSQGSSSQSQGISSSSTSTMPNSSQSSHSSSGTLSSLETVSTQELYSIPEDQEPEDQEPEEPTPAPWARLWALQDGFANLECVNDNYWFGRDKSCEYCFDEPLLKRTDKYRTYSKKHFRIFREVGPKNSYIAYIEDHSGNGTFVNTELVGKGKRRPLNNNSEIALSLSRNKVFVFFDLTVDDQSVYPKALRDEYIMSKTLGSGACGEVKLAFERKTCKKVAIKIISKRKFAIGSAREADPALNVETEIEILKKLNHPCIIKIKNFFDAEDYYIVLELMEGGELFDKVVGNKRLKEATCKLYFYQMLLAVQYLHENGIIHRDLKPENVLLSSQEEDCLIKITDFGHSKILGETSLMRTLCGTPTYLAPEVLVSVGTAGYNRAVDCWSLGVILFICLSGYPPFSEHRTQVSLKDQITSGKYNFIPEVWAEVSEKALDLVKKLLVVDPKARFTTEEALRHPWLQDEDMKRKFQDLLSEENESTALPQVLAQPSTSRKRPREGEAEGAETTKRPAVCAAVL

[8] = biological target: T2, Calcium/calmodulin-dependent protein kinase kinase 2
[9] = biological target: Casein kinase I isoform gamma-2 (Homo sapiens) (UniProt P78368)
Casein kinase I isoform gamma-2 (Homo sapiens), sequence (P78368 whole entry, looked up, canonical isoform): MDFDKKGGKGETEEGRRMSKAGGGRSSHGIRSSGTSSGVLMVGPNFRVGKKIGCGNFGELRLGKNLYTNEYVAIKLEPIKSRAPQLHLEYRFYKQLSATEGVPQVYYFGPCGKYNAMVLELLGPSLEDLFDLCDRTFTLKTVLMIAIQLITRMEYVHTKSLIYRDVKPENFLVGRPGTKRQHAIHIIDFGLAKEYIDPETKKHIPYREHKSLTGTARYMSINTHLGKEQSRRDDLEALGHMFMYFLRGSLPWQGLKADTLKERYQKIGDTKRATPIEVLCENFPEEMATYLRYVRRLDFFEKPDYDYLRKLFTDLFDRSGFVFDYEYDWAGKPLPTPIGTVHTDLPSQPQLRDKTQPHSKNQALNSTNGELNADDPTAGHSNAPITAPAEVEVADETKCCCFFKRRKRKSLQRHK

[10] = biological target: Serine/threonine-protein kinase 26 (Homo sapiens) (UniProt Q9P289)
Serine/threonine-protein kinase 26 (Homo sapiens), sequence (Q9P289 2-416 limits assumed): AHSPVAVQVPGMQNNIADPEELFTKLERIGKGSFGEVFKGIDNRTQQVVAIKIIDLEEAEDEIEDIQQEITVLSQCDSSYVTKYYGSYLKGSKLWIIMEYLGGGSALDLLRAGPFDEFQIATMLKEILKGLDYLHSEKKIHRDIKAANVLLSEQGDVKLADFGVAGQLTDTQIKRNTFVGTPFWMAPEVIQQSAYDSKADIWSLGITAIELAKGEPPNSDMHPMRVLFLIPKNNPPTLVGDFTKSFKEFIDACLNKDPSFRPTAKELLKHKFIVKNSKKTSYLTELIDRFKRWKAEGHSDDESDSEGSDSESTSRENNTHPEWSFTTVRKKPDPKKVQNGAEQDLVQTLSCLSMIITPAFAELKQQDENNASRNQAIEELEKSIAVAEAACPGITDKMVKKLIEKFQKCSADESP

[11] = biological target: cAMP-dependent protein kinase catalytic subunit alpha (Homo sapiens) (UniProt P17612)
[12] = Binding affinity at PKC
[13] = biological target: Myosin light chain kinase, smooth muscle (Homo sapiens, UniProt Q15746); assay: Binding affinity at MLCK
[14] = biological target: Serine/threonine-protein kinase PLK1 (Homo sapiens) (UniProt P53350)
[15] = biological target: STE20-like serine/threonine-protein kinase (Homo sapiens) (UniProt Q9H2G2)
STE20-like serine/threonine-protein kinase (Homo sapiens), sequence (Q9H2G2 whole entry, looked up): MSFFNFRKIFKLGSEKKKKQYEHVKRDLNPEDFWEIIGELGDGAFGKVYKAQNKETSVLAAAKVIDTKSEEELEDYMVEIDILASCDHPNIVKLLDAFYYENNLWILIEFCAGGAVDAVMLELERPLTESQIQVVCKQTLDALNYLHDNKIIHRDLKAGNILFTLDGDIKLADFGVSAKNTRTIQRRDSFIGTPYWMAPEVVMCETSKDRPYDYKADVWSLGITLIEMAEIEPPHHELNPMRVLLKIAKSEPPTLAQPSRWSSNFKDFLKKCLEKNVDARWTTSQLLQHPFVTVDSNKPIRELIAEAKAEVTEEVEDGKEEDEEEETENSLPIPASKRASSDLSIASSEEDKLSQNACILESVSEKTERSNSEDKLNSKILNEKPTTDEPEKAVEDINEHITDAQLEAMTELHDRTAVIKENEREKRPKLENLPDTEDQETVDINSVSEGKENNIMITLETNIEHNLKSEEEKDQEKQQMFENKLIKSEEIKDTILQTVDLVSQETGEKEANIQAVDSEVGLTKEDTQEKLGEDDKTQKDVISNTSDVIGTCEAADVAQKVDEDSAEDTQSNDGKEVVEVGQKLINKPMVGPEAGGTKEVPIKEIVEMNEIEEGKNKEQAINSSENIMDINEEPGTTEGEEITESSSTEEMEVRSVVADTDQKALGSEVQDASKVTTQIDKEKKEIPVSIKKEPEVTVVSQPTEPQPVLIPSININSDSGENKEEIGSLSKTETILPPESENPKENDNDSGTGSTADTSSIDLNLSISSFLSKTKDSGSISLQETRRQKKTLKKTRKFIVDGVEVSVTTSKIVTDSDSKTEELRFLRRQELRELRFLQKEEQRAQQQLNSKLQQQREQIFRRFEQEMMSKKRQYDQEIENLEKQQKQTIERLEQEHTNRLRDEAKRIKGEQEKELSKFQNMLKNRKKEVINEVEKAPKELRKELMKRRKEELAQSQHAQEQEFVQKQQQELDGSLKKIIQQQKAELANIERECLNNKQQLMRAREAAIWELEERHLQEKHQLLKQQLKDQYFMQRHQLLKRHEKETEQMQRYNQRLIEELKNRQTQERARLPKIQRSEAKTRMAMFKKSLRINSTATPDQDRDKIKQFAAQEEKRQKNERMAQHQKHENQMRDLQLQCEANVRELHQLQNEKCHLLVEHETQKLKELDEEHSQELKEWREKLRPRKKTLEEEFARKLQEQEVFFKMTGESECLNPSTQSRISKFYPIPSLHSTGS

[16] = biological target: Serine/threonine-protein kinase pim-2 (Homo sapiens, UniProt Q9P1W9)
Serine/threonine-protein kinase pim-2, sequence (Q9P1W9 whole entry, looked up): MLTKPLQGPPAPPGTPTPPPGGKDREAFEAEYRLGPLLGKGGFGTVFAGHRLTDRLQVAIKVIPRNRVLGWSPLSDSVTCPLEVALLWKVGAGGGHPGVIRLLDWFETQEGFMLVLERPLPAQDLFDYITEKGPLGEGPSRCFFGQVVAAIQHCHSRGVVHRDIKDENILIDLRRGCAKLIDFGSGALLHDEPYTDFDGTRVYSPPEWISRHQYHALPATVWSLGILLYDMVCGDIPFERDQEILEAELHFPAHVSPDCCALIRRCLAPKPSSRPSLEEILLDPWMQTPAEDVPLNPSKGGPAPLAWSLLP

[17] = biological target: Dual specificity protein kinase CLK3 (Homo sapiens) (UniProt P49761)
Dual specificity protein kinase CLK3 (Homo sapiens), sequence (P49761 whole entry, looked up): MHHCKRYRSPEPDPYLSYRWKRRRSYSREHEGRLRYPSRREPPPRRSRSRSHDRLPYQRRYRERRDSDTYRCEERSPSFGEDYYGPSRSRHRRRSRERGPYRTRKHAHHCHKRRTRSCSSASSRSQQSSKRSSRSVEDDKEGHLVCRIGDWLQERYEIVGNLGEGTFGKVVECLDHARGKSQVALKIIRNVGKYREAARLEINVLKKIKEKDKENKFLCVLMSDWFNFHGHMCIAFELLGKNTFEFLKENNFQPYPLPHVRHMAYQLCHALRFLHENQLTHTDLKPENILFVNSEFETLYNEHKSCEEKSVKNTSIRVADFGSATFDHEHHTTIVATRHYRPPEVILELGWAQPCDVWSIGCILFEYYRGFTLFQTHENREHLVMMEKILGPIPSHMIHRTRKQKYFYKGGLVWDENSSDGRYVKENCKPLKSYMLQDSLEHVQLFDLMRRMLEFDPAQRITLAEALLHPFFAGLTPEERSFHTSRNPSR

[18] = biological target: T4, Lymphokine-activated killer T-cell-originated protein kinase (Homo sapiens) (UniProt Q96KB5)
T4 sequence (whole entry): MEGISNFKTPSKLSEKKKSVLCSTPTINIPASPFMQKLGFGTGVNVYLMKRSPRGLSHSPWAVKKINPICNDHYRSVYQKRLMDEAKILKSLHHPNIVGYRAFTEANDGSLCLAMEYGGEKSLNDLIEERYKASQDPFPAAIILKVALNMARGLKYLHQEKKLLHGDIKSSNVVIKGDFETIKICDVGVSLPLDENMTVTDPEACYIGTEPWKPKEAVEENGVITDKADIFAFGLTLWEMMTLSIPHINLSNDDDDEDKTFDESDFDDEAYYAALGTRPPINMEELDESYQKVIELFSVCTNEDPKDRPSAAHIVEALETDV

[19] = biological target: Calcium/calmodulin-dependent protein kinase type II subunit alpha (Homo sapiens) (UniProt Q9UQM7)
Calcium/calmodulin-dependent protein kinase type II subunit alpha (Homo sapiens), sequence (Q9UQM7 whole entry): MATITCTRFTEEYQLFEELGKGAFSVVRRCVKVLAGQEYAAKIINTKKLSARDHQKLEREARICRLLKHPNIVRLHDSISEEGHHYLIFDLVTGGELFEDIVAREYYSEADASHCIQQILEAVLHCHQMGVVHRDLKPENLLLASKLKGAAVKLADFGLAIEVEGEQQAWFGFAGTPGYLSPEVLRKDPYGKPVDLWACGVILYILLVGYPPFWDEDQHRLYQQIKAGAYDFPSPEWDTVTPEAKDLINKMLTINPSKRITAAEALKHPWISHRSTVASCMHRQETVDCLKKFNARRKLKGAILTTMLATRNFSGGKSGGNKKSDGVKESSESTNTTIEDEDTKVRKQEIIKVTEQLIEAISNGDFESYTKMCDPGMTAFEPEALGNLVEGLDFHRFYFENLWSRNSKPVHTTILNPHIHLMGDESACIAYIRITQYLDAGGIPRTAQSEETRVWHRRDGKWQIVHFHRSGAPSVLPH

[20] = biological target: Cyclin-dependent kinase 2 (Homo sapiens, UniProt P24941)
[21] = Inhibition of Cdk2/cyclin B
NT2 = assay: Inhibition of lysophosphatidic acid-induced MARCKS phosphorylation in human NT2 cells; type: functional, cell-based
[22] = Binding affinity at ROCK
[23] = Binding affinity at PKA
[24] = biological target: Epidermal growth factor receptor (Homo sapiens, UniProt P00533)
TGF-beta receptor type-1 = TGF-beta receptor type-1 (Homo sapiens, UniProt P36897)
KB [25] = assay: cells; conditions: Homo sapiens
KB [26] = assay: cells; conditions: Homo sapiens; remark: listed apart in the source

Serine/threonine-protein kinase PAK 6 (Homo sapiens), sequence (Q9NQU5 whole entry, looked up): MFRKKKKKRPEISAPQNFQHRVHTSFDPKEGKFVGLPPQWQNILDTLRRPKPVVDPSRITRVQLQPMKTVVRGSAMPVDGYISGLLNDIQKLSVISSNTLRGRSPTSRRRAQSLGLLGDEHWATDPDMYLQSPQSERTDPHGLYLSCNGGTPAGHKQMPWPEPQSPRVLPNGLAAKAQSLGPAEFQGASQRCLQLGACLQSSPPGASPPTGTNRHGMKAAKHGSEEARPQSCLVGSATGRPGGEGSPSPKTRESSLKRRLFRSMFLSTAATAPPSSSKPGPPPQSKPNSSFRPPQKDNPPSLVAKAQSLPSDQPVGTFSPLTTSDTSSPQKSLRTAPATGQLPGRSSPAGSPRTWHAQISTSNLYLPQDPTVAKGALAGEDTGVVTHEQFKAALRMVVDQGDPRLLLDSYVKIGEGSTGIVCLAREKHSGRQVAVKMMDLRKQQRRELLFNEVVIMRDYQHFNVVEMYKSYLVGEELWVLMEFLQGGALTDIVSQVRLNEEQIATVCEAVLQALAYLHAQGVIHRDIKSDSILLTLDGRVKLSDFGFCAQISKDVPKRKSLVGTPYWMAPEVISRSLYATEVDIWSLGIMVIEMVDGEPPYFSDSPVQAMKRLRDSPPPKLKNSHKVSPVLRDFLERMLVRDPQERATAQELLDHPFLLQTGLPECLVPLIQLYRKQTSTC

**Q.** Which results are given for `O=S(=O)(NCCNC/C=C/c1ccc(Br)cc1)c1cccc2cnccc12`?
**A.** ΔTm [1]: 1.5 °C; ΔTm [2]: -0.4 °C; ΔTm [3]: 1.7 °C; Ki [4]: 29.7 µM; ΔTm [5]: -0.1 °C; ΔTm [6]: 0 °C; ΔTm [7]: 2.6 °C; ΔTm [8]: -0.1 °C; ΔTm [9]: 0.1 °C; ΔTm [10]: 0.9 °C; ΔTm [11]: 6.9 °C; Ki [12]: 31.7 µM; Ki [13]: 28.3 µM; ΔTm [14]: 1 °C; ΔTm [15]: 1.6 °C; ΔTm [16]: -0.3 °C; ΔTm [17]: 1 °C; ΔTm [18]: 0.6 °C; ΔTm [19]: 0.5 °C

**Q.** With `CC(C)n1cnc2c(NCc3ccccc3O)nc(NCCCO)nc21` as the compound, how does the ΔTm [1] read?
**A.** 0.3 °C

**Q.** What about the ΔTm [2] of the same compound?
**A.** 0.5 °C

**Q.** What about the IC50 [20] of the same compound?
**A.** 0.08 µM

**Q.** What about the ΔTm [3] of the same compound?
**A.** 0 °C

**Q.** And the ΔTm [5]?
**A.** 0 °C

**Q.** What about the ΔTm [6] of the same compound?
**A.** 0.1 °C

**Q.** And the ΔTm [7]?
**A.** -0.4 °C

**Q.** What about the ΔTm [8] of the same compound?
**A.** 0.2 °C

**Q.** What about the ΔTm [9] of the same compound?
**A.** 0.7 °C

**Q.** What about the ΔTm [10] of the same compound?
**A.** 0.3 °C

**Q.** What about the ΔTm [11] of the same compound?
**A.** 0.2 °C

**Q.** What about the ΔTm [14] of the same compound?
**A.** 0.5 °C

**Q.** And the ΔTm [15]?
**A.** 0 °C

**Q.** And the ΔTm [16]?
**A.** 0.1 °C

**Q.** And the ΔTm [17]?
**A.** 0.1 °C

**Q.** And the ΔTm [18]?
**A.** 0.7 °C

**Q.** And the ΔTm [19]?
**A.** 0 °C

**Q.** For `NC1=NC(=O)/C(=C2\CCNC(=O)c3[nH]c(Br)cc32)N1` [HYMENIALDISINE], which ΔTm [1] is on record?
**A.** 1.2 °C

**Q.** And the IC50 [21]?
**A.** 0.04 µM

**Q.** What about the ΔTm [2] of the same compound?
**A.** 4.2 °C

**Q.** And the ΔTm [3]?
**A.** 14.8 °C

**Q.** And the ΔTm [5]?
**A.** 0 °C

**Q.** What about the ΔTm [6] of the same compound?
**A.** 0.6 °C

**Q.** And the ΔTm [7]?
**A.** 8.2 °C

**Q.** What about the ΔTm [8] of the same compound?
**A.** 3.4 °C

**Q.** And the ΔTm [9]?
**A.** 5.6 °C

**Q.** What about the ΔTm [10] of the same compound?
**A.** 1.8 °C

**Q.** And the ΔTm [11]?
**A.** 0.8 °C

**Q.** What about the ΔTm [14] of the same compound?
**A.** 5.8 °C

**Q.** And the ΔTm [15]?
**A.** 2.1 °C

**Q.** And the ΔTm [16]?
**A.** 3.7 °C

**Q.** And the ΔTm [17]?
**A.** 8.3 °C

**Q.** What about the ΔTm [18] of the same compound?
**A.** 0.1 °C

**Q.** What about the ΔTm [19] of the same compound?
**A.** 0.4 °C

**Q.** What does the source list for `Cc1cncc2cccc(S(=O)(=O)N3CCCNC[C@@H]3C)c12`?
**A.** ΔTm [1]: 0.7 °C; IC50 (NT2): 2.5 µM; ΔTm [2]: 3.5 °C; ΔTm [3]: 2 °C; ΔTm [5]: 0 °C; ΔTm [6]: 0.4 °C; ΔTm [7]: 1.5 °C; ΔTm [8]: -0.1 °C; ΔTm [9]: 0.6 °C; ΔTm [10]: 0.8 °C; ΔTm [11]: 3.5 °C; Ki [12]: 9.27 µM; Ki [22]: 0.0016 µM; Ki [13]: 10.1 µM; ΔTm [14]: 0.7 °C; Ki [23]: 0.63 µM; ΔTm [15]: 2.9 °C; ΔTm [16]: 0.7 °C; ΔTm [17]: 2.6 °C; ΔTm [18]: 1 °C; ΔTm [19]: 1.2 °C

**Q.** With `O=C(O)/C=C/c1cc(CO)ccc1CO` as the compound, how does the ΔTm [1] read?
**A.** -0.4 °C

**Q.** And the ΔTm [2]?
**A.** 0.5 °C

**Q.** And the ΔTm [3]?
**A.** 0.6 °C

**Q.** And the ΔTm [5]?
**A.** -0.2 °C

**Q.** What about the ΔTm [6] of the same compound?
**A.** -0.2 °C

**Q.** What about the ΔTm [7] of the same compound?
**A.** 0.6 °C

**Q.** What about the ΔTm [8] of the same compound?
**A.** 0.1 °C

**Q.** And the ΔTm [9]?
**A.** 0.4 °C

**Q.** And the ΔTm [10]?
**A.** 0.2 °C

**Q.** And the ΔTm [11]?
**A.** 0.4 °C

**Q.** What about the ΔTm [14] of the same compound?
**A.** 0.3 °C

**Q.** What about the IC50 [24] of the same compound?
**A.** 0.78 µM

**Q.** What about the ΔTm [15] of the same compound?
**A.** 0 °C

**Q.** What about the ΔTm [16] of the same compound?
**A.** 1.6 °C

**Q.** And the ΔTm [17]?
**A.** 0 °C

**Q.** And the ΔTm [18]?
**A.** 0.8 °C

**Q.** And the ΔTm [19]?
**A.** -0.1 °C

**Q.** For `NC(=O)c1ccc(-c2nc(-c3ccc4c(c3)OCCO4)c(-c3ccccn3)[nH]2)cc1`, which ΔTm [1] is on record?
**A.** 0 °C

**Q.** And the ΔTm [2]?
**A.** 0.4 °C

**Q.** What about the ΔTm [3] of the same compound?
**A.** -0.3 °C

**Q.** What about the ΔTm [5] of the same compound?
**A.** -0.7 °C

**Q.** And the ΔTm [6]?
**A.** 0.3 °C

**Q.** What about the ΔTm [7] of the same compound?
**A.** -0.3 °C

**Q.** What about the ΔTm [8] of the same compound?
**A.** -1.1 °C

**Q.** What about the ΔTm [9] of the same compound?
**A.** 0.4 °C

**Q.** And the ΔTm [10]?
**A.** -0.2 °C

**Q.** What about the ΔTm [11] of the same compound?
**A.** -0.3 °C

**Q.** What about the ΔTm [14] of the same compound?
**A.** -0.5 °C

**Q.** And the IC50 (TGF-beta receptor type-1)?
**A.** 0.5 µM

**Q.** And the ΔTm [15]?
**A.** -1.1 °C

**Q.** And the ΔTm [16]?
**A.** -0.2 °C

**Q.** And the ΔTm [17]?
**A.** 0.1 °C

**Q.** And the ΔTm [18]?
**A.** -1.4 °C

**Q.** What about the ΔTm [19] of the same compound?
**A.** 0.1 °C

**Q.** Which ΔTm [1] does the source give for `CN1CCC(Nc2ncc3ncnc(Nc4ccc(F)c(Cl)c4)c3n2)CC1` [FALNIDAMOL] here?
**A.** 2.9 °C

**Q.** What about the IC50 (KB [25]) of the same compound?
**A.** 3.2 µM

**Q.** And the ΔTm [5]?
**A.** 1.5 °C

**Q.** What about the ΔTm [6] of the same compound?
**A.** 0.3 °C

**Q.** And the ΔTm [7]?
**A.** 0.2 °C

**Q.** What about the ΔTm [8] of the same compound?
**A.** -0.1 °C

**Q.** What about the ΔTm [9] of the same compound?
**A.** -0.2 °C

**Q.** And the IC50 (KB [26])?
**A.** 0.00182 µM

**Q.** And the ΔTm [11]?
**A.** 0.4 °C

**Q.** What about the ΔTm [14] of the same compound?
**A.** 1.1 °C

**Q.** And the ΔTm [16]?
**A.** 0.1 °C

**Q.** And the ΔTm [17]?
**A.** 2.7 °C

**Q.** And the ΔTm [19]?
**A.** -0.2 °C
